The record followed here is patent publication US10864279B2, “Linker-drug and antibody-drug conjugate (ADC) employing the same” (priority 2016, dated 2020).

In data set [1] the test system is HER2 moderate-expressing breast cancer cell lines JIMT-1 with anti-Herceptin drug resistance. Kind of data set: Potency test, CCK-8 cell viability, JIMT-1. The format is cell-based. As to conditions: for IC50: HER2 expression 2+ resistant, 72-120 hours; for In vitro selectivity MDA-MB-468/JIMT-1: ratio of IC50. The method, then: (§1) Cells were seeded in Corning CellBIND 96-well plates at densities of 6×10^3 cells/well. After incubation overnight at 37° C., 5% CO2 incubator, different concentrations of ADCs were added to the cells in serial dilutions. The cells were then incubated for 72-120 hours at 37° C., 5% CO2 incubator. After 72-120 hours, the old medium was removed and the cells were rinsed once and treated with 10-fold diluted CCK-8 reagent at 37° C. for 4 hours. The 96-well plates were put in the ELISA reader to measure the absorbance wavelength at 450 nm. Cell viability was calculated by the following equation: Cell Viability (%)=(Intensity of sample/Intensity of control)×100%. IC50 values of the ADC samples were calculated using SigmaPlot software.

The subject of data set [2] is HER2-negative cell lines MDA-MB-468. The experiment in a line: Potency test, CCK-8 cell viability, MDA-MB-468. It is filed as cell-based. As to conditions: HER2 expression negative, 72-120 hours. The method, then:
as §1

In data set [3] the test system is Endometrial cancer tumor tissue, HER2-positive (+1). Kind of data set: Tumor growth inhibition test: EC PDX model. It is filed as in vivo, NODSCID mice. As to conditions: 10 mg/kg i.v.; Day 12, table head Day 0-60. As for the experimental part: Endometrial cancer tumor tissue obtained from National Taiwan University was confirmed to be HER2-positive (+1). Tumor (2-3 mm diameter) was subcutaneous implanted to NODSCID mice to test the drug efficacy of ADCs in vivo. When the average tumor size was about 100 mm^3, mice were divided into groups and ADCs were intravenously injected (10 mL/kg B.W. injection volume).

For data set [4], the system named is HER2 high-expressing breast cancer cell lines BT-474. Kind of data set: Potency test, CCK-8 cell viability, BT-474. It is filed as cell-based. As to conditions: for IC50: HER2 expression 3+, 72-120 hours; for In vitro selectivity MDA-MB-468/BT-474: ratio of IC50. The method, then: as §1
A short description of data set [5]: Storage test in DMSO (LC-MS). The format is physicochemical. The settings on record: 20 mM in DMSO, 0, 21, 92 and 99 days at −20° C. The method, then: 20 mM Linker-drug 7 was stored in DMSO for 0, 21, 92 and 99 days at −20° C. LC-MS was used to analyze the purity of Linker-drug 7. The condition of LC-MS analysis was as follows.
Column: 4.6 mm×20 mm XBridge C18 column (Waters, Milford USA)
Linear gradient: 5 to 70% solvent B (100% acetonitrile with 0.1% formic acid)
Solvent A (0.1% formic acid in ddH2O)
Solvent B (100% acetonitrile with 0.1% formic acid)

A word on the IC50: it is the concentration that gives 50% inhibition. ado-trastuzumab emtansine [Kadcyla]: the IC50 was 15.5 nM in data set [1] (Table 3); 27 nM in data set [1] (Table 4); 15.2 nM in data set [2] (Table 3); 8.11 nM in data set [2] (Table 4); 2.27 nM in data set [4] (Table 3); 0.31 nM in data set [4] (Table 4). Also, the “In vitro selectivity MDA-MB-468/JIMT-1” value in data set [1] (Table 3) came to 1; in data set [1] (Table 4), 0.30. Further, in data set [3], the “TGI (%) ± SEM” value was found to be 26.5±10.1%. In addition, the results for the “In vitro selectivity MDA-MB-468/BT-474” value in data set [4] (Table 3) and in data set [4] (Table 4) were 5.5 and 26.16, respectively.

Turning to `CC[C@H](C)[C@@H]([C@@H](CC(=O)C1CCCN1[C@H](OC)[C@@H](C)C(=O)N[C@H](Cc1ccccc1)C(=O)NCCc1ccc(NC(=O)[C@@H](CCCNC(N)=O)NC(=O)[C@@H](NC(=O)COCCOCCOCCOCCNC(=O)c2ccc(NC(=O)CCl)c(NC(=O)CCl)c2)C(C)C)cc1)OC)N(C)C(=O)[C@H](NC(=O)[C@H](C(C)C)N(C)C)C(C)C` (stereo partly drawn) [Linker-drug 7], in data set [5], the “storage stability (purity by LC-MS)” value is on record as “stable when dissolved in DMSO”.
